Assay: recombinant UMI read abundance after kanamycin selection (control-corrected) (log10(CPM+1)); higher = more efficient recombination; extreme values may be limits of the assay; sequences stand for … in AGTGCAGAGAAAATCGGCCAGTTTTCTCTGCCTGCAGTCCGCATGCCGTGGGACCCCTTGGGTTCTAACCTGTTGCCTAGATTTATGCAGCGGACTGCCTTTCTCCCAAAGTGATAAACCGG…AGGTTGGTTTCACT; site = the 11-nt donor
How it was run: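 Reported values are log10(CPM+1) from a pooled Escherichia coli screen of donor and donor-binding-loop pairs for the IS621 bridge recombinase. Selection used IPTG (0.07 mM) plus kanamycin, against unselected plating, each in two replicates. Recombinant UMIs were amplified across the donor–target junction, sequenced, converted to CPM, averaged over replicates and scaled by control-derived factors.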
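Note: IS621 bridge recombinase in Escherichia coli cells against a fixed T5 target plasmid.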

| Sequence | recombinant UMI read abundance (log10) |
| --- | --- |
| CCCATGTCATGGACCGGTTTTCCCGGTAATCCGTATTTGTC (site CCCATGTCTGA) | 1.64 |
| CCCATGTCATGGACCGGTTTTCCCGGTAATCCGTATTTGTC (site CCCATTTCTGA) | 0 |
| CCCATTTCATGGACCGGTTTTCCCGGTAATCCGTATTTGTC (site CCCATATCTGA) | 0 |
| CCCATTTCATGGACCGGTTTTCCCGGTAATCCGTATTTGTC (site CCCATCTCTGA) | 0 |
| CCCATTTCATGGACCGGTTTTCCCGGTAATCCGTATTTGTC (site CCCATGTCTGA) | 0 |
| CCCATTTCATGGACCGGTTTTCCCGGTAATCCGTATTTGTC (site CCCATTTCTGA) | 0 |
| CCCCAATCATGGACCGGTTTTCCCGGTAATCCGTATTTGTG (site CCCCAATCTCA) | 0.678 |
| CCCCACACATGGACCGGTTTTCCCGGTAATCCGTATTTGAA (site CCCCACACTTA) | 0.0109 |
| CCCCACACATGGACCGGTTTTCCCGGTAATCCGTATTTGAA (site CCCCACACTTC) | 0.33 |
| CCCCACACATGGACCGGTTTTCCCGGTAATCCGTATTTGAA (site CCCCACACTTG) | 0 |
| CCCCACACATGGACCGGTTTTCCCGGTAATCCGTATTTGAA (site CCCCACACTTT) | 0.557 |
| CCCCACACATGGACCGGTTTTCCCGGTAATCCGTATTTGTA (site ACCCACACTTA) | 0.0144 |
| CCCCACACATGGACCGGTTTTCCCGGTAATCCGTATTTGTA (site CACCACACTTA) | 0.0132 |
| CCCCACACATGGACCGGTTTTCCCGGTAATCCGTATTTGTA (site CCACACACTTA) | 0.0146 |
| CCCCACACATGGACCGGTTTTCCCGGTAATCCGTATTTGTA (site CCCAACACTTA) | 0 |
| CCCCACACATGGACCGGTTTTCCCGGTAATCCGTATTTGTA (site CCCCAAACTTA) | 0 |
| CCCCACACATGGACCGGTTTTCCCGGTAATCCGTATTTGTA (site CCCCACACTAA) | 0.0177 |
| CCCCACACATGGACCGGTTTTCCCGGTAATCCGTATTTGTA (site CCCCACACTCA) | 0.0202 |
| CCCCACACATGGACCGGTTTTCCCGGTAATCCGTATTTGTA (site CCCCACACTGA) | 0 |
| CCCCACACATGGACCGGTTTTCCCGGTAATCCGTATTTGTA (site CCCCACACTTA) | 1.14 |
| CCCCACACATGGACCGGTTTTCCCGGTAATCCGTATTTGTA (site CCCCACACTTC) | 0.0125 |
| CCCCACACATGGACCGGTTTTCCCGGTAATCCGTATTTGTA (site CCCCACACTTG) | 0.586 |
| CCCCACACATGGACCGGTTTTCCCGGTAATCCGTATTTGTA (site CCCCACACTTT) | 0.00983 |

| Sequence | recombinant UMI read abundance (log10) |
| --- | --- |
| CCCCACACATGGACCGGTTTTCCCGGTAATCCGTATTTGTA (site CCCCACCCTTA) | 0.00838 |
| CCCCACACATGGACCGGTTTTCCCGGTAATCCGTATTTGTA (site CCCCACGCTTA) | 0.0198 |
| CCCCACACATGGACCGGTTTTCCCGGTAATCCGTATTTGTA (site CCCCACTCTTA) | 0.273 |
| CCCCACACATGGACCGGTTTTCCCGGTAATCCGTATTTGTA (site CCCCAGACTTA) | 0.0244 |
| CCCCACACATGGACCGGTTTTCCCGGTAATCCGTATTTGTA (site CCCCATACTTA) | 0.0127 |
| CCCCACACATGGACCGGTTTTCCCGGTAATCCGTATTTGTA (site CCCCCCACTTA) | 0.0246 |
| CCCCACACATGGACCGGTTTTCCCGGTAATCCGTATTTGTA (site CCCCGCACTTA) | 0.0118 |
| CCCCACACATGGACCGGTTTTCCCGGTAATCCGTATTTGTA (site CCCCTCACTTA) | 0.0137 |
| CCCCACACATGGACCGGTTTTCCCGGTAATCCGTATTTGTA (site CCCGACACTTA) | 0.0189 |
| CCCCACACATGGACCGGTTTTCCCGGTAATCCGTATTTGTA (site CCCTACACTTA) | 0.0176 |
| CCCCACACATGGACCGGTTTTCCCGGTAATCCGTATTTGTA (site CCGCACACTTA) | 0.021 |
| CCCCACACATGGACCGGTTTTCCCGGTAATCCGTATTTGTA (site CCTCACACTTA) | 0.0102 |
| CCCCACACATGGACCGGTTTTCCCGGTAATCCGTATTTGTA (site CGCCACACTTA) | 0.016 |
| CCCCACACATGGACCGGTTTTCCCGGTAATCCGTATTTGTA (site CTCCACACTTA) | 0.113 |
| CCCCACACATGGACCGGTTTTCCCGGTAATCCGTATTTGTA (site GCCCACACTTA) | 0.00479 |
| CCCCACACATGGACCGGTTTTCCCGGTAATCCGTATTTGTA (site TCCCACACTTA) | 0.0139 |
| CCCCAGACATGGACCGGTTTTCCCGGTAATCCGTATTTGTA (site CCCCAAACTTA) | 0.459 |
| CCCCAGACATGGACCGGTTTTCCCGGTAATCCGTATTTGTA (site CCCCACACTTA) | 0.0077 |
| CCCCAGACATGGACCGGTTTTCCCGGTAATCCGTATTTGTA (site CCCCAGACTTA) | 0.691 |
| CCCCAGACATGGACCGGTTTTCCCGGTAATCCGTATTTGTA (site CCCCATACTTA) | 0.00999 |
| CCCCCCACATGGACCGGTTTTCCCGGTAATCCGTATTTGTA (site CCCCACACTTA) | 0.00745 |
| CCCCCCACATGGACCGGTTTTCCCGGTAATCCGTATTTGTA (site CCCCCCACTTA) | 0.82 |
| CCCCCCACATGGACCGGTTTTCCCGGTAATCCGTATTTGTA (site CCCCGCACTTA) | 0.0126 |

| Sequence | recombinant UMI read abundance (log10) |
| --- | --- |
| CCCCCCACATGGACCGGTTTTCCCGGTAATCCGTATTTGTA (site CCCCTCACTTA) | 0.00445 |
| CCCCGCACATGGACCGGTTTTCCCGGTAATCCGTATTTGTA (site CCCCACACTTA) | 0.48 |
| CCCCGCACATGGACCGGTTTTCCCGGTAATCCGTATTTGTA (site CCCCCCACTTA) | 0.00659 |
| CCCCGCACATGGACCGGTTTTCCCGGTAATCCGTATTTGTA (site CCCCGCACTTA) | 1.16 |
| CCCCGCACATGGACCGGTTTTCCCGGTAATCCGTATTTGTA (site CCCCTCACTTA) | 0.00635 |
| CCCCGCCCATGGACCGGTTTTCCCGGTAATCCGTATTTGTC (site CCCCGCCCTGA) | 0 |
| CCCCGTACATGGACCGGTTTTCCCGGTAATCCGTATTTGAT (site CCCCGTACTAT) | 1.45 |
| CCCCGTACATGGACCGGTTTTCCCGGTAATCCGTATTTGCT (site CACCGTACTAG) | 0.00449 |
| CCCCGTACATGGACCGGTTTTCCCGGTAATCCGTATTTGCT (site CCCCGTACTAG) | 1.56 |
| CCCCGTACATGGACCGGTTTTCCCGGTAATCCGTATTTGCT (site CGCCGTACTAG) | 0 |
| CCCCGTACATGGACCGGTTTTCCCGGTAATCCGTATTTGCT (site CTCCGTACTAG) | 0.542 |
| CCCCTCACATGGACCGGTTTTCCCGGTAATCCGTATTTGTA (site CCCCACACTTA) | 0.0243 |
| CCCCTCACATGGACCGGTTTTCCCGGTAATCCGTATTTGTA (site CCCCCCACTTA) | 0.274 |
| CCCCTCACATGGACCGGTTTTCCCGGTAATCCGTATTTGTA (site CCCCGCACTTA) | 0.0202 |
| CCCCTCACATGGACCGGTTTTCCCGGTAATCCGTATTTGTA (site CCCCTCACTTA) | 1.15 |
| CCCCTCGCATGGACCGGTTTTCCCGGTAATCCGTATTTGAA (site CCCCTCGCTTT) | 0.801 |
| CCCCTCTCATGGACCGGTTTTCCCGGTAATCCGTATTTGGG (site CCCATCTCTCC) | 0 |
| CCCCTCTCATGGACCGGTTTTCCCGGTAATCCGTATTTGGG (site CCCCTCTCTCC) | 0.0198 |
| CCCCTCTCATGGACCGGTTTTCCCGGTAATCCGTATTTGGG (site CCCGTCTCTCC) | 0.00587 |
| CCCCTCTCATGGACCGGTTTTCCCGGTAATCCGTATTTGGG (site CCCTTCTCTCC) | 0 |
| CCCCTTACATGGACCGGTTTTCCCGGTAATCCGTATTTGGT (site CCCCTTACTAC) | 0.238 |
| CCCGACCCATGGACCGGTTTTCCCGGTAATCCGTATTTGAG (site CCCGACCCTCT) | 0.0182 |

Reference: the supplement of paper PMC11208160
